Results from patent US20260234159A1, “SMALL MOLECULE TREATMENT OF FATTY LIVER DISEASE AND HCC” (SCANDIEDGE THERAPEUTICS AB, priority 2023, published 2026).

What was measured:
Type in all cases: cell-based, human
[1] = tested on: GPX4; experiment: Western blot, GPX4; conditions: compared to the control
Protocol: (§1) HepG2 cells were seeded into a 6-well plate at 400,000 cells per well. After treatment with 10 μM of JNK-IN-5A and its derivatives for two days, lysates were harvested with CelLytic M (C2978, Sigma-Aldrich). 20 μg lysate was prepared with 2× Laemmli Sample Buffer (1610737, Biorad). SDS PAGE were performed using Mini-PROTEAN® TGX™ Precast Gels (Bio-Rad) and transferred using Trans-Blot® Turbo™ Transfer System (Bio-Rad). Primary antibody, PARP (95425, Cell signalling), Caspase 3 (ab32042, abcam), Bcl-2 (ab182858), STAT1 (HPA000982, Merk), PKL (06653, Sigma), PKM (4053S, Cell signalling), GAPDH (ab8245, abcam), P53 (ab32389, abcam), p21 (ab109199, abcam), p-S349 p62 (ab211324, abcam), p62 (ab109012, abcam), c-Myc (ab32072, abcam), GPX4 (ab125066, abcam), MMP9 (MA5-32705, Invitrogen), β-actin (ab8227, abcam), and α-tubulin (ab7291, abcam) were blotted overnight and Goat Anti-Rabbit HRP (ab205718) and goat anti-mouse IgG-HRP (sc2005, Santa Cruz Biotechnology, Inc.) were blotted for secondary antibody for one hour. ImageQuantTMLAS 500 (29-0050-63, GE) was used to detect protein bands.

[2] = tested on: PARP; experiment: Western blot, cleaved PARP; conditions: 10 μM, 2 days
Protocol: as §1

[3] = tested on: Caspase 3; experiment: Western blot, active caspase 3; conditions: 10 μM, 2 days
Protocol: as §1

[4] = tested on: HepG2 cells; experiment: RNA sequencing, GSEA and PROGENy pathway analysis
Protocol: RNA samples for RNA sequencing were extracted with RNeasy Plus Mini Kit (74134, QIAGEN). RIN score of total RNA samples was measured using RNA 6000 Nano kit (5067-1511, Agilent). 2100 Bioanalyzer Instrument (G2939BA, Agilent) was used for RIN score test using electrophoresis. Samples with a […] were submitted to SZA Omics, Istanbul for RNA sequencing analysis.
The quality, quantity, and RNA integrity number (RIN) of the samples were assessed with NanoDrop (Thermo Fisher, USA), and Bioanalyzer (2100, Agilent Technology, USA). For the RNA samples, the ratio of absorbance at 260 and 280 nm (A260/280) of […], A260/230 of 2.0-2.2, and RIN>8.0 are acceptable. All samples passed the quality control.
The Illumina Stranded Total RNA Prep, Ligation with Ribo-Zero Plus kit was used for the construction of NGS libraries from the samples with acceptable quality parameters. In short, RNA samples were sequenced with 2×100 paired-end reads by the NovaSeq 6000 system. Raw sequencing data (.bcl) was demultiplexed and converted to FASTQ files with DRAGEN Software (v3.9.5). The data was delivered in FASTQ format using Illumina 1.8 quality scores.
The quality of FASTQ files was assessed by FastQC (v0.11.9) software to ensure the quality of every sequenced sample. Kallisto (v0.48.0)16 was used to quantify the count and transcripts per million (TPM) values of transcripts based on the Homo sapiens reference cDNA (version GRCh38, Ensembl release 110). The transcript read counts and TPM values were assembled to gene level using the R package tximport (v1.28.0), with only protein-coding transcripts and genes included. The lowly expressed genes with an average count below 5 were filtered out, resulting in a total of 14,592 genes for the downstream analysis.
Differential expression analysis was conducted using the R package DESeq2 (v1.40.2) followed by the Benjamini-Hochberg procedure to correct p-values. […]

[5] = tested on: HepG2 cells; experiment: DAPI and PI staining for necrotic cell death; conditions: 10 μM, 2 days
Protocol: HepG2 cells were treated with 10 μM of the JNK-IN-5A derivatives for 2 days and cells were stained with DAPI (Blue) and PI (Red) for 30 min, at live cells. PI positive necrotic cells were counted and plotted.

[6] = tested on: p53; experiment: Nuclear protein western blot, p53; conditions: 10 μM, 2 days; compared to sorafenib and regorafenib
Protocol: as §1

[7] = tested on: HepG2 cells; experiment: LDH cytotoxicity assay, time dependent; conditions: 10 μM, up to 4 days
Protocol: HepG2 cells were maintained and used with RPMI 1640 (R2405, Sigma-Aldrich) supplemented with 10% fetal bovine serum (F7524, Sigma-Aldrich), 1% P/S (P4333, Sigma-Aldrich). 20,000 cells per well of HepG2 cells were seeded into a 96-well plate and triplicated for MTT assay and LDH assay. Cell viability was measured by MTT assay (M6494, ThermoFisher) and cytotoxicity was measured by LDH assay kit (ab65393, abcam) by following manufacturer's instructions. Optical density (O.D) was numerated using a microplate reader (Hidex Sense Meta Plus).

SMILES | GPX4 expression levels [1] | increase in cleaved PARP vs untreated control [2] | active caspase 3 levels [3] | inhibition of cell cycle-related pathways (E2F targets, G2M checkpoint), GSEA [4] | p53 pathways activity (PROGENy) [4] | necrotic cell death (PI staining) [5] | nuclear-localized p53 [6] | necrotic cell death (LDH) [7]
COc1ccc(C(=O)Nc2sc3c(c2C#N)CCCCC3)cc1OC [PKL-A135, N-(3-cyano-5,6,7,8-tetrahydro-4H-cyclohepta[b]thiophen-2-yl)-3,4-dimethoxy-benzamide] | 0.58 times | 78.31 times | 11.85 times | most potent inhibitor | significantly activated | significantly induced necrotic cell death | significant increase | pronounced necrotic cell death from day 1 to day 4
N#Cc1c(NC(=O)c2cccc3ccccc23)sc2c1CCN(CC(=O)Nc1cccc(Br)c1)C2 [PKL-B171] | 0.88 times | 87.97 times | 14.66 times |  | significantly activated | significantly induced necrotic cell death | significant increase | pronounced late necrotic cell death from day 3 to 4
